Experimental data from the supplement of paper PMC10307832.

Tests used:
Assay in all cases: relative viability (nuclei count vs DMSO), 5 days (fraction); higher = more cells survive
Metformin + Olaparib = compound: CN(C)C(=N)NC(=N)N [Metformin] + O=C(c1cc(Cc2n[nH]c(=O)c3ccccc23)ccc1F)N1CCN(C(=O)C2CC2)CC1 [Olaparib] (partner 8 µM)
In short: (§1)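 Relative viability was taken as the ratio of nuclei in treated wells to nuclei in vehicle wells. Lung cancer cell lines in 1536-well plates received compounds by pin tool one day after seeding, either one drug alone or a fixed anchor-drug dose plus five library-drug doses (not always all listed) in √10 steps. Nuclei were counted on 4× images after 5 days of treatment, and values are medians of duplicate plates.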

Apatinib + Pictilisib = compound: N#CC1(c2ccc(NC(=O)c3cccnc3NCc3ccncc3)cc2)CCCC1 [Apatinib] + CS(=O)(=O)N1CCN(Cc2cc3nc(-c4cccc5[nH]ncc45)nc(N4CCOCC4)c3s2)CC1 [Pictilisib] (partner 1 µM)
In short: as §1

Metformin + Luminespib = compound: CN(C)C(=N)NC(=N)N [Metformin] + CCNC(=O)c1noc(-c2cc(C(C)C)c(O)cc2O)c1-c1ccc(CN2CCOCC2)cc1 [Luminespib] (partner 0.01 µM)
In short: as §1

Apatinib + AZD7762 = compound: N#CC1(c2ccc(NC(=O)c3cccnc3NCc3ccncc3)cc2)CCCC1 [Apatinib] + NC(=O)Nc1cc(-c2cccc(F)c2)sc1C(=O)N[C@H]1CCCNC1 [AZD7762] (partner 0.2 µM)
In short: as §1

| Cell Line | relative viability (Metformin + Olaparib; first compound 10 µM) | relative viability (Metformin + Olaparib; first compound 31.62 µM) | relative viability (Metformin + Olaparib; first compound 100 µM) | relative viability (Metformin + Olaparib; first compound 316.23 µM) | relative viability (Metformin + Olaparib; first compound 1000 µM) | relative viability (Apatinib + Pictilisib; first compound 0.08 µM) | relative viability (Apatinib + Pictilisib; first compound 0.253 µM) | relative viability (Apatinib + Pictilisib; first compound 0.8 µM) | relative viability (Apatinib + Pictilisib; first compound 2.53 µM) | relative viability (Apatinib + Pictilisib; first compound 8 µM) | relative viability (Metformin + Luminespib; first compound 10 µM) | relative viability (Metformin + Luminespib; first compound 31.62 µM) | relative viability (Metformin + Luminespib; first compound 100 µM) | relative viability (Metformin + Luminespib; first compound 316.23 µM) | relative viability (Metformin + Luminespib; first compound 1000 µM) | relative viability (Apatinib + AZD7762; first compound 0.08 µM) | relative viability (Apatinib + AZD7762; first compound 0.253 µM) | relative viability (Apatinib + AZD7762; first compound 0.8 µM) | relative viability (Apatinib + AZD7762; first compound 2.53 µM) | relative viability (Apatinib + AZD7762; first compound 8 µM) |
| --- | --- | --- | --- | --- | --- | --- | --- | --- | --- | --- | --- | --- | --- | --- | --- | --- | --- | --- | --- | --- |
| Calu-6 | 0.459 | 0.416 | 0.421 | 0.48 | 0.467 | 0.954 | 0.951 | 0.813 | 0.864 | 0.602 | – | – | – | – | – | – | – | – | – | – |
| EBC-1 | 0.68 | 0.733 | 0.73 | 0.728 | 0.721 | 0.36 | 0.345 | 0.299 | 0.247 | 0.157 | – | – | – | – | – | – | – | – | – | – |
| NCI-H1650 | 0.687 | 0.625 | 0.763 | 0.682 | 0.59 | 0.355 | 0.658 | 0.58 | 0.526 | 0.477 | 0.189 | 0.212 | 0.203 | 0.218 | 0.218 | – | – | – | – | – |
| NCI-H2009 | 0.612 | 0.69 | 0.604 | 0.568 | 0.705 | 1.12 | 0.727 | 0.737 | 0.644 | 0.501 | 1.07 | 1.09 | 1.08 | 1.02 | 0.93 | – | – | – | – | – |
| HCC-78 | – | 1.01 | 1.07 | 0.979 | 0.443 | 0.299 | 0.158 | 0.236 | 0.221 | 0.205 | – | – | – | – | – | 0.553 | 0.766 | 0.666 | 0.539 | 0.638 |
| NCI-H661 | 0.648 | 0.718 | 0.715 | 0.694 | 0.711 | 0.273 | 0.393 | 0.461 | 0.381 | 0.367 | 0.844 | 0.837 | 0.876 | 0.807 | 0.354 | – | – | – | – | – |
| COR-L23 | 0.256 | 0.3 | 0.336 | 0.231 | 0.254 | 0.966 | 0.777 | 0.788 | 0.65 | 0.658 | 0.635 | 0.655 | 0.593 | 0.495 | 0.302 | – | – | – | – | – |
| COR-L 105 | 0.804 | 0.625 | 0.645 | 0.725 | 0.694 | 0.512 | 0.471 | 0.33 | 0.438 | 0.354 | 0.85 | 0.736 | 0.749 | 0.538 | 0.795 | – | – | – | – | – |
| IA-LM | 0.864 | 0.94 | 0.85 | 0.658 | 0.917 | 0.384 | 0.266 | 0.363 | 0.325 | 0.287 | – | – | – | – | – | – | – | – | – | – |
| SK-LU-1 | 0.356 | 0.375 | 0.502 | 0.389 | 0.398 | 0.786 | 0.637 | 0.564 | 0.557 | 0.453 | 0.204 | 0.204 | 0.221 | 0.204 | 0.244 | – | – | – | – | – |
